What was measured:
histamine H3 receptor = biological target: T1, histamine H3 receptor (Rattus norvegicus, UniProt Q9QYN8); test: Histamine H3 receptor binding assay ([3H]-Nα-methylhistamine binding to rat striatum homogenate); conditions: 1 μmol/L test compound; [3H]-Nα-methylhistamine 1 nmol/L; striata of Sprague-Dawley male rats, 25° C., 1 hour; read-out: Inhibition ratio of [3H]-Nα-methylhistamine binding
T1 construct: from tissue; host or cells: rat striatum (Sprague-Dawley, male, 6 weeks), membrane homogenate
T1 sequence (Q9QYN8 whole entry): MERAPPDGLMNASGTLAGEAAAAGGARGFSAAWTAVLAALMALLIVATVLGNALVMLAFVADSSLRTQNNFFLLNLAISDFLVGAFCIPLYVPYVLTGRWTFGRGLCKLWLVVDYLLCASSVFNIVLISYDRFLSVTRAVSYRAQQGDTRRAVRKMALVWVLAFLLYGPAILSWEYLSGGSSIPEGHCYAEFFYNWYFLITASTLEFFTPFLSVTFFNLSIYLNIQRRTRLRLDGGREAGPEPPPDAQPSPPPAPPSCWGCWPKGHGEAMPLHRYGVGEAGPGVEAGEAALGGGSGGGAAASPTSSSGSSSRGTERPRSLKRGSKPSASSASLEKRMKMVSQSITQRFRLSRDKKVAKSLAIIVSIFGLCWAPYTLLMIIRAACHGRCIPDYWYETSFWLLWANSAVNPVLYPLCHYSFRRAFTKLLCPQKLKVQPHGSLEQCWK
Summary of the method: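 Rat striatum membranes (20 μg protein) incubated with [3H]-Nα-methylhistamine 1 nmol/L in 50 mmol/L Tris/HCl pH 7.4, 5 mmol/L EDTA, 1 hour at 25° C; bound ligand by filtration and scintillation counting. Nonspecific binding defined with 10 μmol/L thioperamide; % inhibition reported at 1 μmol/L compound.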

Row | inhibition at 1 µM (histamine H3 receptor) [%] | melting point [°C] | SMILES
1 | ≥ 80 | 70 to 71 | C[C@H]1CCCN1CCCN1CCN(CCN2CCCCC2)C1=C(C#N)C#N [Compound 195, {1-[3-((S)-2-methylpyrrolidin-1-yl)propyl]-3-(2-piperidinoethyl)imidazolidin-2-ylidene}malononitrile]
2 | ≥ 80 | 87 to 89 | C[C@@H]1CCCN1CCCN1CCN(CCCN2CCC[C@@H]2C)C1=C(C#N)C#N [Compound 117]
3 | – | 105 to 107 | N#CCS(=O)(=O)C=C1N(CCCN2CCCCC2)CCN1CCCN1CCCCC1 [Compound 136, [1,3-Bis(3-piperidinopropyl)imidazolidin-2-ylidene]methanesulfonylacetonitrile]
4 | ≥ 80 | 63 to 64 | N#CC(C#N)=C1N(CCCN2CCCCC2)CCN1CCN1CCCC1 [Compound 59, {1-(3-Piperidinopropyl)-3-[2-(pyrrolidin-1-yl)ethyl]imidazolidin-2-ylidene}malononitrile]
5 | – | 136 to 137 | N#CC(C#N)=C(NCCCN1CCCCC1)N1CCN(C2CCCCC2)CC1 [Compound 183, [(4-Cyclohexylpiperazin-1-yl)(3-piperidinopropylamino)methylene]malononitrile]
6 | ≥ 80 | 99 to 102 | CC1CCCN1CCCN1CCN(CCCN2CCC(F)(F)C2)C1=C(C#N)C#N (stereo not drawn) [Compound 120, {1-[3-(3,3-Difluoropyrrolidin-1-yl)propyl]-3-[3-(2-methylpyrrolidin-1-yl)propyl]imidazolidin-2-ylidene}malononitrile]
7 | ≥ 80 | 197 to 198 | CC(C)N1CCC(N(C)C(=C(C#N)C#N)N2CCC(CN3CCCCC3)CC2)CC1 [Compound 179, {[N-(1-isopropylpiperidin-4-yl)-N-methylamino](4-piperidinomethylpiperidino)methylene}malononitrile]
8 | ≥ 80 | 79 to 80 | N#CC(C#N)=C1N(CCCN2CCC[C@@H]2CO)CCN1CCCN1CCC[C@@H]1CO [Compound 118, {1,3-Bis[3-((R)-2-hydroxymethylpyrrolidin-1-yl)propyl]imidazolidin-2-ylidene}malononitrile]
9 | – | 91 to 93 | C[C@H]1CCCN1CCCN1CCN(CCCN2CCC[C@@H]2C)C1=CS(=O)(=O)CC#N [Compound 138, {1,3-Bis[3-((S)-2-methylpyrrolidin-1-yl)propyl]imidazolidin-2-ylidene}methanesulfonylacetonitrile]
10 | ≥ 80 | 88 to 89 | CC1CCCCN1CCN1CCN(CCCN2CCC[C@@H]2C)C1=C(C#N)C#N (stereo partly drawn) [Compound 198, {3-[2-(2-Methylpiperidino)ethyl]-1-[3-((S)-2-methylpyrrolidin-1-yl)propyl]imidazolidin-2-ylidene}malononitrile]
11 | ≥ 80 | 70 to 71 | N#CC(C#N)=C1N(CCCN2CCCC2)CCN1CCN1CCCC1 [Compound 60, {1-[2-(Pyrrolidin-1-yl)ethyl]-3-[3-(pyrrolidin-1-yl)propyl]imidazolidin-2-ylidene}malononitrile]
12 | ≥ 80 | 95 to 96 | CC1CCCN1CCCN1CCN(CCN2CCCC2)C1=C(C#N)C#N (stereo not drawn) [Compound 61, {1-[3-(2-Methylpyrrolidin-1-yl)propyl]-3-[2-(pyrrolidin-1-yl)ethyl]imidazolidin-2-ylidene}malononitrile]
13 | ≥ 80 | 112 to 115 | C#CC(C)(C)N1CCC(N2CCN(CCCN3CCCCC3)C2=C(C#N)C#N)CC1 [Compound 228, {1-[1-(1,1-Dimethyl-2-propynyl)piperidin-4-yl]-3-(3-piperidinopropyl)imidazolidin-2-ylidene}malononitrile]
14 | ≥ 80 | 121 to 123 | CN1CCCC1CCN1CCN(CCC2CCCN2C)C1=C(C#N)C#N (stereo not drawn) [Compound 4, {1,3-Bis[2-(1-methylpyrrolidin-2-yl)ethyl]imidazolidin-2-ylidene}malononitrile]
15 | ≥ 80 | 114 to 116 | N#CC(C#N)=C(NCCCN1CCCCC1)N1CCC(N2CCCC2)CC1 [Compound 158, {(3-Piperidinopropylamino)[4-(pyrrolidin-1-yl)piperidino]methylene}malononitrile]
16 | – | 147 to 148 | N#CC(C#N)=C(NC1CCN(Cc2ccccc2)CC1)NC1CCN(Cc2ccccc2)CC1 [Compound 239, [Bis(1-benzylpiperidin-4-ylamino)methylene]malononitrile]
17 | ≥ 80 | 94 to 96 | CCN(CCCN1CCCCC1)C(=C(C#N)C#N)N1CCC(N2CCCCC2)CC1 [Compound 162, {[N-ethyl-N-(3-piperidinopropyl)amino](4-piperidinopiperidino)methylene}malononitrile]

Row | inhibition at 1 µM (histamine H3 receptor) [%] | melting point [°C] | SMILES
18 | – | 156 to 158 | CN(CCN1CCCCC1)C(=C(C#N)C#N)N1CCC(N(C)c2ccccc2)CC1 [Compound 146, {[4-(N-methyl-N-phenylamino)piperidino][N-methyl-N-(2-piperidinoethyl)amino]methylene}malononitrile]
19 | ≥ 80 | 72 to 73 | C[C@H]1CCCN1CCCN1CCN(CCCN2CCOCC2)C1=C(C#N)C#N [Compound 201, {3-(3-Morpholinopropyl)-1-[3-((S)-2-methylpyrrolidin-1-yl)propyl]imidazolidin-2-ylidene}malononitrile]
20 | – | 103 to 105 | N#CC(C#N)=C1N(CCCN2CCCCC2)CCN1C1CCN(CC(F)(F)F)CC1 [Compound 225, {1-(3-Piperidinopropyl)-3-[1-(2,2,2-trifluoroethyl)piperidin-4-yl]imidazolidin-2-ylidene}malononitrile]
21 | ≥ 80 | 94 to 95 | C[C@@H]1CCCN1CCN1CCN(CCCN2CCC[C@@H]2C)C1=C(C#N)C#N [Compound 196, {3-[2-((R)-2-methylpyrrolidin-1-yl)ethyl]-1-[3-((S)-2-methylpyrrolidin-1-yl)propyl]imidazolidin-2-ylidene}malononitrile]
22 | ≥ 80 | 85 to 86 | CC1CCCN1CCCN1C(=C(C#N)C#N)N(CCN2CCCCC2)c2ccccc21 (stereo not drawn) [Compound 200, {1-[3-(2-Methylpyrrolidin-1-yl)propyl]-3-(2-piperidinoethyl)benzimidazolidin-2-ylidene}malononitrile]
23 | ≥ 80 | 74 to 76 | C[C@@H]1CCCN1CCCN1CCN(CCN2CCCCC2)C1=C(C#N)C#N [Compound 194, {1-[3-((R)-2-methylpyrrolidin-1-yl)propyl]-3-(2-piperidinoethyl)imidazolidin-2-ylidene}malononitrile]
24 | – | 122 to 124 | N#CC(C#N)=C(NCCCN1CCCCC1)N1CCC(N2CCOCC2)CC1 [Compound 164, [(3-Piperidinopropylamino) (4-morpholinopiperidino)methylene]malononitrile]
25 | ≥ 80 | 93 to 94 | C[C@@H]1CCCN1CCCN1CCN(CCN2CCC[C@@H]2C)C1=C(C#N)C#N [Compound 197, {3-[2-((S)-2-methylpyrrolidin-1-yl)ethyl]-1-[3-((R)-2-methylpyrrolidin-1-yl)propyl]imidazolidin-2-ylidene}malononitrile]
26 | ≥ 80 | 74 to 75 | C[C@@H]1CCCN1CCCN1CCN(CCN2CCC[C@H]2C)C1=C(C#N)C#N [Compound 55, {1-[2-((R)-2-methylpyrrolidin-1-yl)ethyl]-3-[3-((R)-2-methylpyrrolidin-1-yl)propyl]imidazolidin-2-ylidene}malononitrile]
27 | ≥ 80 | 83 to 84 | CC1CCCN1C1CCN(C(NCCCN2CCCCC2)=C(C#N)C#N)CC1 (stereo not drawn) [Compound 163, {[4-(2-Methylpyrrolidin-1-yl)piperidino](3-piperidinopropylamino)methylene}malononitrile]
28 | – | 127 to 128 | N#CC(C#N)=C1N(CCN2CCCCC2)c2ccccc2N1CCN1CCCCC1 [Compound 192, [1,3-Bis-(2-piperidinoethyl)benzimidazolidin-2-ylidene]malononitrile]
29 | ≥ 80 | – | CC1CCN(CCCN2CCN(CCCN3CCCCC3)C2=C(C#N)C#N)CC1 [Compound 100, {1-[3-(4-Methylpiperidino)propyl]-3-(3-piperidinopropyl)imidazolidin-2-ylidene}malononitrile]
30 | ≥ 80 | – | CC1CCCCN1CCCN1CCN(CCCN2CC=CCC2)C1=C(C#N)C#N (stereo not drawn) [Compound 86, {1-[3-(1,2,3,6-Tetrahydropyridin-1-yl)propyl]-3-[3-(2-methylpiperidino)propyl]imidazolidin-2-ylidene}malononitrile]
31 | ≥ 80 | – | CC(C)N1CCC(N2CCN(CCN3CCC[C@@H]3C)C2=C(C#N)C#N)CC1 [Compound 210, {1-(1-Isopropylpiperidin-4-yl)-3-[2-((S)-2-methylpyrrolidin-1-yl)ethyl]imidazolidin-2-ylidene}malononitrile]
32 | ≥ 80 | – | CN(CCCN1CCC(F)(F)C1)C(=C(C#N)C#N)N1CCC(N2CCCCC2)CC1 [Compound 169, ({N-[3-(3,3-difluoropyrrolidin-1-yl)propyl]-N-methylamino}(4-piperidinopiperidino)methylene)malononitrile]
33 | ≥ 80 | – | CC1CCCN1CCCN1CCN(CCCN2CCCC2C)C1=C(C#N)S(=O)(=O)c1ccccc1 (stereo not drawn) [Compound 244, {1,3-Bis[3-(2-methylpyrrolidin-1-yl)propyl]imidazolidin-2-ylidene}benzenesulfonylacetonitrile]
34 | ≥ 80 | – | N#CC(C#N)=C1N(CCCN2CC=CCC2)CCN1CCCN1CCCCCC1 [Compound 68, {1-[3-(Azepan-1-yl)propyl]-3-[3-(1,2,3,6-tetrahydropyridin-1-yl)propyl]imidazolidin-2-ylidene}malononitrile]

Source: patent US20090181948A1, “DIAMINE DERIVATIVE” (KYOWA HAKKO KOGYO CO., LTD., priority 2005, published 2009)
